Assay results from US20230365592A1 (Agios Pharmaceuticals, Inc., priority 2022, published 2023).

These compounds were tested against T1, human PAH with the R408W mutation (Homo sapiens, UniProt P00439, R408W) (assay: Cell Based Phenylalanine Flux Assay). Conditions: A375 cells expressing human R408W PAH; 24 hrs compound incubation; 13C-Tyrosine by LC-MS; average where tested multiple times; read-out: AC50.
T1 construct: expressed in transfected cells
T1 sequence (P00439 1-452 R408W): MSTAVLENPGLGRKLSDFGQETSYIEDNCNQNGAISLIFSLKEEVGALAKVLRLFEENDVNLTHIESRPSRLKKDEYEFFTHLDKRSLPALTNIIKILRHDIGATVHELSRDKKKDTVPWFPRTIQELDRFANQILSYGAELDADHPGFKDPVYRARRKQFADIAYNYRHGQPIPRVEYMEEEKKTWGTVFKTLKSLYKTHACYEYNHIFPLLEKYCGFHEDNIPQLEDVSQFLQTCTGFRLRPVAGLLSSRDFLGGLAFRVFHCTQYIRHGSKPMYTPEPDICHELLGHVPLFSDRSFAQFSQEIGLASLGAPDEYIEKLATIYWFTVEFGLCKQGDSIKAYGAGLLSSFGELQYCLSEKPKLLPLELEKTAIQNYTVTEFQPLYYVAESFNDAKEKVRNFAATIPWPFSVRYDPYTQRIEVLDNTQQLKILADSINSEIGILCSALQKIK
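Further: after compound treatment, cells received sepiapterin plus isotope-labelled Phenylalanine for 4 hours, then labelled Tyrosine in the medium was quantified, 10-point 2-fold dilution series run in duplicate.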

Structure (SMILES) | AC50 [nM]
Cn1ccc(-c2ccc3c(C(=O)N4CCc5[nH]cnc5[C@H]4c4cc5cccc(C(F)(F)F)n5n4)cnn3c2)n1 [Example 1632, (S)-(6-(1-methyl-1H-pyrazol-3-yl)pyrazolo[1,5-a]pyridin-3-yl)(4-(7-(trifluoromethyl)pyrazolo[1,5-a]pyridin-2-yl)-6,7-dihydro-1H-imidazo[4,5-c]pyridin-5(4H)-yl)methanone] | 500 to 1000
O=C(c1cnn2cc(-c3ccccn3)ccc12)N1CCc2[nH]cnc2[C@H]1c1cc2c(F)cccn2n1 [Example 1644, (S)-(4-(4-fluoropyrazolo[1,5-a]pyridin-2-yl)-6,7-dihydro-1H-imidazo[4,5-c]pyridin-5(4H)-yl)(6-(pyridin-2-yl)pyrazolo[1,5-a]pyridin-3-yl)methanone] | < 500
Cn1ccc(-c2ccc3c(C(=O)N4CCc5[nH]cnc5[C@H]4c4cc5c(F)cccn5n4)cnn3c2)n1 [Example 1646, (S)-(4-(4-fluoropyrazolo[1,5-a]pyridin-2-yl)-6,7-dihydro-1H-imidazo[4,5-c]pyridin-5(4H)-yl)(6-(1-methyl-1H-pyrazol-3-yl)pyrazolo[1,5-a]pyridin-3-yl)methanone] | 500 to 1000
Cn1ccc(-c2ccc3c(C(=O)N4CCc5[nH]cnc5[C@@H]4c4cc5c(F)cccn5n4)cnn3c2)n1 [Example 1647, (R)-(4-(4-fluoropyrazolo[1,5-a]pyridin-2-yl)-6,7-dihydro-1H-imidazo[4,5-c]pyridin-5(4H)-yl)(6-(1-methyl-1H-pyrazol-3-yl)pyrazolo[1,5-a]pyridin-3-yl)methanone] | > 5000
COc1cccn2nc([C@@H]3c4nc[nH]c4CCN3C(=O)c3nnc(-c4ccn(C(F)(F)F)n4)o3)cc12 [Example 1652, (S)-(4-(4-methoxypyrazolo[1,5-a]pyridin-2-yl)-6,7-dihydro-1H-imidazo[4,5-c]pyridin-5(4H)-yl)(5-(1-(trifluoromethyl)-1H-pyrazol-3-yl)-1,3,4-oxadiazol-2-yl)methanone] | 500 to 1000
COc1cccn2nc([C@H]3c4nc[nH]c4CCN3C(=O)c3nnc(-c4ccn(C(F)(F)F)n4)o3)cc12 [Example 1653, (R)-(4-(4-methoxypyrazolo[1,5-a]pyridin-2-yl)-6,7-dihydro-1H-imidazo[4,5-c]pyridin-5(4H)-yl)(5-(1-(trifluoromethyl)-1H-pyrazol-3-yl)-1,3,4-oxadiazol-2-yl)methanone] | > 5000
O=C(c1nnc(C2CC2)o1)N1CCc2[nH]cnc2[C@H]1c1cc2c(OC(F)F)cccn2n1 [Example 1654, (S)-(5-cyclopropyl-1,3,4-oxadiazol-2-yl)(4-(4-(difluoromethoxy)pyrazolo[1,5-a]pyridin-2-yl)-6,7-dihydro-1H-imidazo[4,5-c]pyridin-5(4H)-yl)methanone] | 500 to 1000
Cc1c(-c2nnc(C(=O)N3CCc4[nH]cnc4[C@H]3c3cc4c(OC(F)F)cccn4n3)o2)cnn1C [Example 1658, (S)-(4-(4-(difluoromethoxy)pyrazolo[1,5-a]pyridin-2-yl)-6,7-dihydro-1H-imidazo[4,5-c]pyridin-5(4H)-yl)(5-(1,5-dimethyl-1H-pyrazol-4-yl)-1,3,4-oxadiazol-2-yl)methanone] | 500 to 1000
O=C(c1nnc(-c2cnn(C(F)F)c2)o1)N1CCc2[nH]cnc2[C@H]1c1cc2c(OC(F)F)cccn2n1 [Example 1660, (S)-(4-(4-(difluoromethoxy)pyrazolo[1,5-a]pyridin-2-yl)-6,7-dihydro-1H-imidazo[4,5-c]pyridin-5(4H)-yl)(5-(1-(difluoromethyl)-1H-pyrazol-4-yl)-1,3,4-oxadiazol-2-yl)methanone] | 500 to 1000
O=C(c1nnc(-c2ccn(C(F)F)n2)o1)N1CCc2[nH]cnc2[C@H]1c1cc2c(OC(F)F)cccn2n1 [Example 1662, (S)-(4-(4-(difluoromethoxy)pyrazolo[1,5-a]pyridin-2-yl)-6,7-dihydro-1H-imidazo[4,5-c]pyridin-5(4H)-yl)(5-(1-(difluoromethyl)-1H-pyrazol-3-yl)-1,3,4-oxadiazol-2-yl)methanone] | 500 to 1000
O=C(c1nnc(-c2ccn(C(F)F)n2)o1)N1CCc2[nH]cnc2[C@@H]1c1cc2c(OC(F)F)cccn2n1 [Example 1663, (R)-(4-(4-(difluoromethoxy)pyrazolo[1,5-a]pyridin-2-yl)-6,7-dihydro-1H-imidazo[4,5-c]pyridin-5(4H)-yl)(5-(1-(difluoromethyl)-1H-pyrazol-3-yl)-1,3,4-oxadiazol-2-yl)methanone] | > 5000

The remaining lines, values ahead:

AC50 [nM] | Structure (SMILES)
< 500 | Clc1cccn2nc([C@@H]3c4nc[nH]c4CCN3c3nnc(-c4ccccn4)o3)cc12 [Example 1623, (S)-2-(4-(4-chloropyrazolo[1,5-a]pyridin-2-yl)-6,7-dihydro-1H-imidazo[4,5-c]pyridin-5(4H)-yl)-5-(pyridin-2-yl)-1,3,4-oxadiazole]
500 to 1000 | FC(F)c1cccc2cc([C@@H]3c4nc[nH]c4CCN3c3nnc(-c4ccccn4)o3)nn12 [Example 1626, (S)-2-(4-(7-(difluoromethyl)pyrazolo[1,5-a]pyridin-2-yl)-6,7-dihydro-1H-imidazo[4,5-c]pyridin-5(4H)-yl)-5-(pyridin-2-yl)-1,3,4-oxadiazole]
500 to 1000 | Cc1cccn2nc([C@@H]3c4nc[nH]c4CCN3C(=O)c3cnn4cc(-c5cnn(C)c5)ccc34)cc12 [Example 1630, (S)-(6-(1-methyl-1H-pyrazol-4-yl)pyrazolo[1,5-a]pyridin-3-yl)(4-(4-methylpyrazolo[1,5-a]pyridin-2-yl)-6,7-dihydro-1H-imidazo[4,5-c]pyridin-5(4H)-yl)methanone]
500 to 1000 | CN(C)Cc1ccc2c(C(=O)N3CCc4[nH]cnc4[C@H]3c3cc4c(Cl)cccn4n3)cnn2c1 [Example 1634, (S)-(4-(4-chloropyrazolo[1,5-a]pyridin-2-yl)-6,7-dihydro-1H-imidazo[4,5-c]pyridin-5(4H)-yl)(6-((dimethylamino)methyl)pyrazolo[1,5-a]pyridin-3-yl)methanone]
< 500 | Cc1cccn2nc([C@@H]3c4nc[nH]c4CCN3c3nnc(-c4ccccn4)o3)cc12 [Example 1637, (S)-2-(4-(4-methylpyrazolo[1,5-a]pyridin-2-yl)-6,7-dihydro-1H-imidazo[4,5-c]pyridin-5(4H)-yl)-5-(pyridin-2-yl)-1,3,4-oxadiazole]
500 to 1000 | Cc1cccc2cc([C@@H]3c4nc[nH]c4CCN3c3nnc(-c4ccccn4)o3)nn12 [Example 1640, (S)-2-(4-(7-methylpyrazolo[1,5-a]pyridin-2-yl)-6,7-dihydro-1H-imidazo[4,5-c]pyridin-5(4H)-yl)-5-(pyridin-2-yl)-1,3,4-oxadiazole]
> 5000 | Cc1cccn2nc([C@H]3c4nc[nH]c4CCN3c3nc4ccccc4o3)cc12 [Example 1642, (R)-2-(4-(4-methylpyrazolo[1,5-a]pyridin-2-yl)-6,7-dihydro-1H-imidazo[4,5-c]pyridin-5(4H)-yl)benzo[d]oxazole]
500 to 1000 | Cc1cccn2nc([C@@H]3c4nc[nH]c4CCN3c3nc4ccccc4o3)cc12 [Example 1643, (S)-2-(4-(4-methylpyrazolo[1,5-a]pyridin-2-yl)-6,7-dihydro-1H-imidazo[4,5-c]pyridin-5(4H)-yl)benzo[d]oxazole]
> 5000 | O=C(c1cnn2cc(-c3ccccn3)ccc12)N1CCc2[nH]cnc2[C@@H]1c1cc2c(F)cccn2n1 [Example 1645, (R)-(4-(4-fluoropyrazolo[1,5-a]pyridin-2-yl)-6,7-dihydro-1H-imidazo[4,5-c]pyridin-5(4H)-yl)(6-(pyridin-2-yl)pyrazolo[1,5-a]pyridin-3-yl)methanone]
500 to 1000 | Cc1cccn2nc([C@@H]3c4nc[nH]c4CCN3C(=O)c3cnn4cc(-c5ccccn5)ccc34)cc12 [Example 1648, (S)-(4-(4-methylpyrazolo[1,5-a]pyridin-2-yl)-6,7-dihydro-1H-imidazo[4,5-c]pyridin-5(4H)-yl)(6-(pyridin-2-yl)pyrazolo[1,5-a]pyridin-3-yl)methanone]
> 5000 | Cc1cccn2nc([C@H]3c4nc[nH]c4CCN3C(=O)c3cnn4cc(-c5ccccn5)ccc34)cc12 [Example 1649, (R)-(4-(4-methylpyrazolo[1,5-a]pyridin-2-yl)-6,7-dihydro-1H-imidazo[4,5-c]pyridin-5(4H)-yl)(6-(pyridin-2-yl)pyrazolo[1,5-a]pyridin-3-yl)methanone]
> 5000 | O=C(c1nnc(-c2ncccc2F)o1)N1CCc2[nH]cnc2[C@@H]1c1cc2c(OC(F)F)cccn2n1 [Example 1656, (R)-(4-(4-(difluoromethoxy)pyrazolo[1,5-a]pyridin-2-yl)-6,7-dihydro-1H-imidazo[4,5-c]pyridin-5(4H)-yl)(5-(3-fluoropyridin-2-yl)-1,3,4-oxadiazol-2-yl)methanone]
500 to 1000 | O=C(c1nnc(-c2ncccc2F)o1)N1CCc2[nH]cnc2[C@H]1c1cc2c(OC(F)F)cccn2n1 [Example 1657, (S)-(4-(4-(difluoromethoxy)pyrazolo[1,5-a]pyridin-2-yl)-6,7-dihydro-1H-imidazo[4,5-c]pyridin-5(4H)-yl)(5-(3-fluoropyridin-2-yl)-1,3,4-oxadiazol-2-yl)methanone]
< 500 | Clc1cccn2nc([C@@H]3c4nc[nH]c4CCN3c3ncccn3)cc12 [Example 1664, (S)4-(4-chloropyrazolo[1,5-a]pyridin-2-yl)-5-(pyrimidin-2-yl)-4,5,6,7-tetrahydro-1H-imidazo[4,5-c]pyridine]
1000 to 5000 | Clc1cccn2nc([C@H]3c4nc[nH]c4CCN3c3ncccn3)cc12 [Example 1665, (R)-4-(4-chloropyrazolo[1,5-a]pyridin-2-yl)-5-(pyrimidin-2-yl)-4,5,6,7-tetrahydro-1H-imidazo[4,5-c]pyridine]
